Data on one compound can be found in patent US20070155780A1, “Stabilized composition containing 4-amino-5-chloro-n-[(1r, 3r, 5s)-8-methyl-8-azabicyclo[3.2.1]oct-3-y1]-2-[1-methylbut-2-ynyloxy]benzamide” (priority 2004, published 2007).

A short description of this data set: Compatibility test of the active ingredient with pharmaceutical additives (storage, HPLC). Conditions: 60° C., relative humidity 75%, one week. Type of data set: physicochemical.

Experimental: Specifically, 4-amino-5-chloro-N-[(1R,3r,5S)-8-methyl-8-azabicyclo[3.2.1]oct-3-yl]-2-[(1S)-1-methylbut-2-ynyloxy]benzamide was admixed with various pharmaceutical additives in weight proportions in Table 2, the resulting compositions were weighed in transparent glass bottles, and were stored at 60° C., relative humidity of 75% for one week while keeping the lid open. Various fillers, disintegrators, binders, lubricants, and others were used as the pharmaceutical additives. As a control, 4-amino-5-chloro-N-[(1R,3r,5S)-8-methyl-8-azabicyclo[3.2.1]oct-3-yl]-2-[(1S)-1-methylbut-2-ynyloxy]benzamide alone was weighed in a transparent glass bottle and was stored under the above-mentioned conditions. The samples before and after storage were evaluated using high-performance liquid chromatography (HPLC). The stabilities of the samples were evaluated based on the total amount of decomposition products (%), the amount (%) of main decomposition product at a retention time (RRT) of 1.37, and the residual ratio of content (%) of the active ingredient after storage. […] Total amount of decomposition products (%)=Total sum of the amounts of individual decomposition products Residual ratio of content (%)=[(Content after storage)/(Content before storage)]×100 (HPLC condition)
The respective samples before and after storage were mixed with an extraction medium, stirred for sixty minutes, and centrifuged at 3000 rpm for fifteen minutes. The resulting supernatants were assayed by liquid chromatography to thereby determine the amounts of decomposition products and the content of the active ingredient. • Extraction medium: 30% by volume aqueous solution of acetonitrile • Detector: Ultraviolet absorptiometer • Mobile phase A: Mixture of water/acetonitrile/(sodium perchlorate monohydrate)/(perchloric acid) (900:100:7:1, V/V/W/V) • Mobile phase B: Mixture of acetonitrile/water/(sodium perchlorate monohydrate)/(perchloric acid) (900:100:7:1, V/V/W/V) • Column: Stainless steel tube having an inner diameter of 4.6 mm and a length of 15 cm, charged with 3-μm octadecylsilylated silica gel for liquid chromatography • Column temperature: Constant temperature around 40° C.

Consider `CC#C[C@H](C)Oc1cc(N)c(Cl)cc1C(=O)NC1CC2CCC(C1)N2C` (stereo partly drawn) [the active ingredient, 4-amino-5-chloro-N-[(1R,3r,5S)-8-methyl-8-azabicyclo[3.2.1]oct-3-yl]-2-[(1S)-1-methylbut-2-ynyloxy]benzamide], for which, for the setting “compared within additive class or with control”, the “Decomposition on storage, in words” value is recorded as “no decomposition product”. For the same compound, the “Amount of main decomposition product at RRT = 1.37 (%)” value (active ingredient admixed with additive (additive rate 100, 50 or 15 to the active ingredient), lid open, HPLC external standard method) was found to be 0.00%. Further, where the note is “active ingredient admixed with additive, lid open, content after/before storage x100”, the “Residual ratio of content (%)” value was found to be 99.6%. Moreover, for the setting “active ingredient admixed with additive, lid open, sum of individual decomposition products”, the “Total amount of decomposition products (%)” value is 0.00%.
